Assay results published in patent US5244662A, “Medicinal extract from a mixture of Phellodendron and defatted seed of Croton, and method for it's manufacture” (Korea Green Cross Corporation, priority 1990, dated 1993).

Legend:
osteoporosis = experiment: Clinical trial in osteoporosis; assay type: in vivo, patient
Excerpt: (G-1) Clinical trial on a severe case whose vertebral density was just 0.332 g/cm^2 (29% of normal value), that is, corresponding to the 10th year from each menopause and the inability to walk over ten minutes. […]

PO-GRSI cells = experiment: Steroid hormone synthesis of PO-GRSI; assay type: cell-based
Method: Granuloma cells play an important role in producing ovum in mammalian animals, and particularly secrete progesterone to enhance the proliferation of ovum. Granuloma cells metastasized artificially with carcinogenic genes (SV-40 and Ha-Ras) have the ability to synthesize both progesterone, the cell's original function and protein, and the original function of the carcinogenic gene. For the test, PO-GRSI and PA-GS6 were cultured in DMEM/F12(1:1) haematologic culture media containing insulin(2 μg/ml), transferin (5 μg/ml), hydrocortisone(40 μg/ml) and fibronectin(5 μg/ml), and the progesterone was analyzed by radioimmunoassay ([…]).
The antitumour activities of the extract obtained in Example 1 against Granuloma cells were determined also by evaluating its action on the progesterone and 20 alpha --OH-- progesterone synthesis of the captioned two kinds of cells. In the meantime, the action of FORSKOLIN to enhance the two steroid hormone syntheses were also checked.

granuloma cells = experiment: Action on primary granuloma cells (progesterone production); assay type: cell-based, rats
Method: Current antitumour drugs affect normal cellular growth as well as growth of tumour cells, whereby very careful therapeutic application of the agents has been required. […] The action of the present extract on spleen cells and granuloma cells was investigated to evaluate the action on normal cellular growth.
The spleen cells originated from BALB/C mice and were cultured in RPMI media under the condition of 7% CO2 /37° C. The granuloma cells originated from the ovum of young rats aged 25 days and were cultured in DMEM/F 12(1:1) media containing fetal bovine serum under the same conditions.

[1] = treatment of osteoporosis; cited from earlier work
L1210 (ATCC CCL 219) = tested on: L1210 (ATCC CCL 219); design: species or system BDFI mice; conditions: mouse, in vivo
P388 (ATCC CCL 46) = tested on: P388 (ATCC CCL 46); design: species or system BDFI mice; conditions: mouse, in vivo

CC#C[C@]1(O)CC[C@H]2[C@@H]3CCc4cc(O)ccc4[C@H]3CC[C@@]21C [Estrogen]
vertebral density maintained (osteoporosis): 0.341 g/cm^2

C=C[C@@]1(C)CC(=O)[C@]2(O)[C@@]3(C)[C@@H](O)CCC(C)(C)[C@@H]3[C@H](O)[C@H](OC(C)=O)[C@@]2(C)O1 [forskolin]
increase of 20 alpha-OH-progesterone synthesis over the control (PO-GRSI cells): 100 times
increase of progesterone synthesis over the control (PO-GRSI cells): 60 times
progesterone secretion versus control (granuloma cells; forskolin): eight times that of the control
progesterone (granuloma cells; forskolin 10^-4 M, control 109.6): 829.0 ng/mL

[F-].[Na+] [Sodium fluoride]
adverse effects of nausea and gastric irritation [1]: About 30%
rheumatic pain in leg joints [1]: 10%

CO[C@@]12[C@H](COC(N)=O)C3=C(C(=O)C(C)=C(N)C3=O)N1C[C@@H]1N[C@@H]12 [mitomycin C]
survival rate (%) (L1210 (ATCC CCL 219)): 135%
survival time (L1210 (ATCC CCL 219)): 21 days
survival rate (%) (P388 (ATCC CCL 46)): 130.4%
survival time (P388 (ATCC CCL 46)): 21.6 days
